# Experimental data: patent publication US20220039395A1, “INSECT CONTROL AGENTS” (priority 2018, published 2022)
# Entries after “also recorded” stand apart in the source; their conditions may differ. Square brackets hold non-standard residues; d marks the D form. Aib = CC(C)(N)C(=O)O
# What was measured:
# Myzus persicae [1] = test: Desiccation/starvation tolerance assay after peptide microinjection; type: in vivo; details: Myzus persicae, microinjection; for Documented effect on desiccation/starvation mortality: final concentration ×10^−5 M, relative to vehicle control; for LTime50 (h), test / Median ± IQR survival (h), test: ×10^−5 M, desiccation and starvation stress, test group
# Description: (§1) Neuropeptides were administered to test aphids via microinjection to allow for rapid mass screening of neuropeptide analogue efficacy. For this, native neuropeptides were diluted in double distilled water (DDH2O) to a concentration of 1×10^−5 M. Neuropeptide analogues were diluted in DDH2O to the following concentrations: kinin analogues 1728 (2.5×10^−5 M), 2139 (3.5×10^−5 M), 2139-Ac (3.5×10^−5 M); CAP2b analogues 1895 (3.5×10^−5 M), 1896 (3.5×10^−5 M), 1902 (3.5×10^−5 M), 2089 (3.9×10^−5 M), 2123 (1.0×10^−5 M), 2125 (1.0×10^−5 M), 2129 (2.0×10^−5 M). Once at the desired concentration, neuropeptide solutions were administered to test aphids at an injection volume of 9 nl based on total haemolymph volume, to produce an approximate 1:20 dilution of injection volume to haemolymph. Injections were performed using a pulled glass needle and a Nanoject II Auto-Nanoliter Injector (Drummond Scientific Company, Broomall, Pa.). A vehicle control was set up for each treatment/day of experiments to account for variation in needle pulling. For this, control aphids were injected with 9 nl of DDH2O and subsequently exposed to the same experiments as aphids receiving the neuropeptide treatment. Neuropeptide treated and vehicle control aphids were subsequently used in the stress bioassays detailed below.
# (§2) Anholocyclic adults of mixed age of either M. persicae or M. rosae were selected from the stock cultures and treated with a native neuropeptide or neuropeptide analogue via microinjection using the method detailed above. Treated and vehicle control aphids were allowed to recover on excised leaves of the host plant for 1 h before being placed in an empty ventilated microcage (L=4 cm, 0=9.5 cm) at densities of 10 per cage. In total, 30-40 aphids were treated for each neuropeptide treatment group and a further 30-40 for the associated vehicle control group. From the point of placement in the microcage (taken as 0 h), aphid survival was checked every hour during daylight hours and approximately every 4 h during night-time hours until the final aphid died. Survival data were subsequently analysed using a Log-rank (Mantel-Cox) text in GraphPad Prism version 7.0. LTime50 (the time taken to kill 50% of the test population) values were calculated via Probit Analysis in Minitab 17 (Minitab Inc., State College, Pa.).
# Macrosiphum rosae = test: as above; type: in vivo; details: Macrosiphum rosae, microinjection; for Documented effect on desiccation/starvation mortality: final concentration ×10^−5 M, relative to vehicle control; for LTime50 (h), test / Median IQR survival (h), test: ×10^−5 M, desiccation and starvation stress, test group
# Description: as §1, §2
# Myzus persicae [2] = test: Cold tolerance bioassay at the discriminating temperature after microinjection; type: in vivo; details: M. persicae, 1 h at −9.7° C., survival assessed after 48 h, vs control
# Description: Neuropeptides were administered to test aphids via microinjection to allow for rapid mass screening of neuropeptide analogue efficacy. For this, native neuropeptides were diluted in double distilled water (DDH2O) to a concentration of 1×10^−5 M. Neuropeptide analogues were diluted in DDH2O to the following concentrations: kinin analogues 1728 (2.5×10^−5 M), 2139 (3.5×10^−5 M), 2139-Ac (3.5×10^−5 M); CAP2b analogues 1895 (3.5×10^−5 M), 1896 (3.5×10^−5 M), 1902 (3.5×10^−5 M), 2089 (3.9×10^−5 M), 2123 (1.0×10^−5 M), 2125 (1.0×10^−5 M), 2129 (2.0×10^−5 M). […]
# For this reason, and given its global pest status, only M. persicae was taken forward in cold stress assays. […] Following exposure, aphids were allowed to recover at the culture temperature in microcages containing excised leaves of the host plant and survival was assessed after 48 h. […]
# Survival data were analysed using Probit analysis in MINITAB, version 17 (Minitab Inc., State College, Pa.) and the LT30 (the lethal temperature resulting in 30% mortality of a test population) was elucidated.
# Pre-reproductive anholocyclic adult aphids of M. persicae were treated with neuropeptide analogues using the microinjection method detailed above. […] Following exposure, adults were allowed to recover at the culture temperature in microcages containing excised leaves of the host plant and survival was assessed after 48 h. […]
# M. persicae = test: Topical application under desiccation/starvation conditions; type: in vivo, Myzus persicae; details: data not shown
# Description: For peptides 2315, 2320 and 2125, peptides were diluted individually in an Armid FMPC formulation (AkzoNobel Surface Chemistry, Stenungsund, Sweden) to concentration of 1×10^−5 M. Using a Nanoject II Auto-Nanoliter micro-injector, 9 nl of the peptide solution was applied topically to the abdomen of a pre-reproductive adult aphid, coating the cuticle in the solution. Aphids were returned to the host plant and allowed to recover for 24 h before use in experiments. Control aphids were topically applied with 9 nl of the Armid FMPC formulation and, once again, allowed to recover for 24 h on the host plant before use in experiments.
# as §2, with “In total, 30-40 aphids were treated for each neuropeptide treatment group and a further 30-40 for the associated vehicle control group. From the point of placement in the microcage (taken as 0 h), aphid survival was checked every hour during daylight hours and approximately every 4 h during night-time hours until the final aphid died.” left out
Substance,Documented effect on desiccation/starvation mortality (Myzus persicae [1]),"LTime50 (h), test (Myzus persicae [1])","Median ± IQR survival (h), test (Myzus persicae [1])",Documented effect on desiccation/starvation mortality (Macrosiphum rosae),"LTime50 (h), test (Macrosiphum rosae)","Median IQR survival (h), test (Macrosiphum rosae)",Effect on survival/mortality under cold stress (Myzus persicae [2]),effect on mortality (M. persicae)
"Ac-FF[Aib]WG-NH2 [2139-AC, reference compound]",No effect,19.4 | 16.7 h,22.5 ± 19.8 | 20.0 ± 14.0 h,No effect,44.0 | 40.1 h,39.0 ± 37.0 | 35.0 ± 32.0 h,acting to increase survival relative to the control,–
2Abf-Suc-FT[Oic]RV-NH2 [compound 2125],non-significant survival curves; also recorded: No effect,10.8 | 13.0 h,11.0 ± 12.0 | 11.0 ± 12.0 h,non-significant survival curves; also recorded: No effect,21.6 | 20.1 h,24.0 ± 9.25 | 20.5 ± 18.0 h,–,significantly increased mortality
